This passage reports IC50 results from patent publication US20240398828A1, “HETERO-ATOM CONTAINING COMPOUNDS AND USES THEREOF” (Kumquat Biosciences Inc., priority 2021, published 2024).

The structures appear in SMILES notation.

The target of one test is T1, PTPN1 (i.e., PTP1B) (Homo sapiens, UniProt P18031).
T1 sequence (P18031 1-435): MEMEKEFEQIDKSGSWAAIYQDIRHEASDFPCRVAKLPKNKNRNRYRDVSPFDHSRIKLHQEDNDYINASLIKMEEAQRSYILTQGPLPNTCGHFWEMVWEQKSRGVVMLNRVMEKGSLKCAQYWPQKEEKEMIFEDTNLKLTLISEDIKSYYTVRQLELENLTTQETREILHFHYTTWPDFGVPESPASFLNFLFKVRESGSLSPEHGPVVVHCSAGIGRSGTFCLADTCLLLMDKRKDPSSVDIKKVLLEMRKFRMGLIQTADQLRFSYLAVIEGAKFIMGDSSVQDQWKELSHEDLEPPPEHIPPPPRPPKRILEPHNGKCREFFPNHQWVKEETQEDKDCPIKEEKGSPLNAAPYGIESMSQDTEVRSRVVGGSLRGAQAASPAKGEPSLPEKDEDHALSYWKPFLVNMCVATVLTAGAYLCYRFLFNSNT
The experiment in a line: Phosphatase activity assay (DiFMUP substrate), PTP1B. The class given is biochemical. Conditions: compounds binned ≤1 uM or >1 uM. In short, it runs like this:
(§1)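 Continuous fluorogenic readout of DiFMUP dephosphorylation at room temperature, substrate set at Km for each phosphatase (about 45 μM in the PTPN2 assay). The buffer contains 1 mM DTT and 0.001% Tween-20, pH 7.5.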

Another test addresses T2, PTPN2 (i.e., TC-PTP) (Homo sapiens, UniProt P17706).
T2 sequence (P17706 1-415): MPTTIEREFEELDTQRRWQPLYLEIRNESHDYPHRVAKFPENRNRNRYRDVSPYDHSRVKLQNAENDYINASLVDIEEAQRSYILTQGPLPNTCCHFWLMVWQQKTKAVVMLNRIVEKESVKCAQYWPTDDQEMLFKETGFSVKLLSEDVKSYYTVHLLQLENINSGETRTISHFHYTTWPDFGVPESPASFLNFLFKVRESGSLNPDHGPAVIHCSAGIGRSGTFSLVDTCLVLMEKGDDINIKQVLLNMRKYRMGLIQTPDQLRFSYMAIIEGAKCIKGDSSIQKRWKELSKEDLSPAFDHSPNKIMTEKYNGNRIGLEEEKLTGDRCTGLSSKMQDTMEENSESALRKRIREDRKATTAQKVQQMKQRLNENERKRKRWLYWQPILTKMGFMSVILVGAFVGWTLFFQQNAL
The test is described as follows: Phosphatase activity assay (DiFMUP substrate), PTPN2. The class given is biochemical. Conditions: compounds binned ≤1 uM or >1 uM. In short, it runs like this: as §1

As a reminder, the IC50 is the midpoint of a concentration-inhibition curve.

As to `CC(C)CNCc1cc(-c2ccc(O)c(N3CC(=O)NS3(=O)=O)c2F)[nH]n1` [Compound 436, 5-(2-fluoro-6-hydroxy-3-(3-((isobutylamino)methyl)-1H-pyrazol-5-yl)phenyl)-1,2,5-thiadiazolidin-3-one 1,1-dioxide], the IC50 was at most 1 µM on PTPN1 (i.e., PTP1B) and at most 1 µM at PTPN2 (i.e., TC-PTP).

On to `O=C1CN(c2c(O)ccc(-c3cnn(CC4CC5CCC(C4)O5)c3)c2F)S(=O)(=O)N1` (stereo not shown) [Compound 422, 5-(3-(1-((8-oxabicyclo[3.2.1]octan-3-yl)methyl)-1H-pyrazol-4-yl)-2-fluoro-6-hydroxyphenyl)-1,2,5-thiadiazolidin-3-one 1,1-dioxide], for which the IC50 on PTPN1 (i.e., PTP1B) is at most 1 µM; on PTPN2 (i.e., TC-PTP), at most 1 µM.

`CC(C)CCn1cc(-c2ccc(O)c(N3CC(=O)NS3(=O)=O)c2)cn1` [Compound 132, 5-(2-hydroxy-5-(1-isopentyl-1H-pyrazol-4-yl)phenyl)-1,2,5-thiadiazolidin-3-one 1,1-dioxide]: the IC50 on PTPN1 (i.e., PTP1B) was at most 1 µM; at PTPN2 (i.e., TC-PTP) it was at most 1 µM.

On to `N#Cc1ccc(Cn2cc(-c3ccc(O)c(N4CC(=O)NS4(=O)=O)c3F)cn2)cc1F` [Compound 157, 4-((4-(3-(1,1-dioxido-4-oxo-1,2,5-thiadiazolidin-2-yl)-2-fluoro-4-hydroxyphenyl)-1H-pyrazol-1-yl)methyl)-2-fluorobenzonitrile], for which the IC50 at PTPN1 (i.e., PTP1B) was at most 1 µM; at PTPN2 (i.e., TC-PTP) it was at most 1 µM.

In the case of `CC(C)CNCc1cc(-c2ccc(O)c(N3CC(=O)NS3(=O)=O)c2F)nn1C` [Compound 288, 5-(2-fluoro-6-hydroxy-3-(5-((isobutylamino)methyl)-1-methyl-1H-pyrazol-3-yl)phenyl)-1,2,5-thiadiazolidin-3-one 1,1-dioxide], the IC50 at PTPN1 (i.e., PTP1B) was at most 1 µM; on PTPN2 (i.e., TC-PTP), at most 1 µM.

For the molecule `O=C1CN(c2c(O)ccc(-c3cnn(C4CC5(CCC5)C4)c3)c2F)S(=O)(=O)N1` [Compound 242, 5-(2-fluoro-6-hydroxy-3-(1-(spiro[3.3]heptan-2-yl)-1H-pyrazol-4-yl)phenyl)-1,2,5-thiadiazolidin-3-one 1,1-dioxide], the IC50 at PTPN1 (i.e., PTP1B) was at most 1 µM; on PTPN2 (i.e., TC-PTP) it was at most 1 µM.

As for `O=C1CN(c2c(O)ccc(-c3cnn4ccccc34)c2F)S(=O)(=O)N1` [Compound 195, 5-(2-fluoro-6-hydroxy-3-(pyrazolo[1,5-a]pyridin-3-yl)phenyl)-1,2,5-thiadiazolidin-3-one 1,1-dioxide], the IC50 at PTPN1 (i.e., PTP1B) was at most 1 µM; at PTPN2 (i.e., TC-PTP), at most 1 µM.

Take `O=C1CN(c2c(O)ccc(-n3cc(C4CC4)c(O)n3)c2F)S(=O)(=O)N1` [Compound 458, 5-(3-(4-cyclopropyl-3-hydroxy-1H-pyrazol-1-yl)-2-fluoro-6-hydroxyphenyl)-1,2,5-thiadiazolidin-3-one 1,1-dioxide]: the IC50 at PTPN1 (i.e., PTP1B) is at most 1 µM; on PTPN2 (i.e., TC-PTP), at most 1 µM.

`CC#Cc1cc(-c2ccc(O)c(N3CC(=O)NS3(=O)=O)c2F)[nH]n1` [Compound 354, 5-(2-fluoro-6-hydroxy-3-(3-(prop-1-yn-1-yl)-1H-pyrazol-5-yl)phenyl)-1,2,5-thiadiazolidin-3-one 1,1-dioxide]: the IC50 on PTPN1 (i.e., PTP1B) was at most 1 µM; at PTPN2 (i.e., TC-PTP), at most 1 µM.

Turning to `Cn1ccc(-c2ccc(O)c(N3CC(=O)NS3(=O)=O)c2F)c1` [Compound 185, 5-(2-fluoro-6-hydroxy-3-(1-methyl-1H-pyrrol-3-yl)phenyl)-1,2,5-thiadiazolidin-3-one 1,1-dioxide], the IC50 is at most 1 µM on PTPN1 (i.e., PTP1B) and at most 1 µM at PTPN2 (i.e., TC-PTP).

`O=C1CN(c2c(O)ccc(C3CCN(S(=O)(=O)C4CC4)C3)c2F)S(=O)(=O)N1` (stereo not shown) [Compound 359, 5-(3-(1-(cyclopropylsulfonyl)pyrrolidin-3-yl)-2-fluoro-6-hydroxyphenyl)-1,2,5-thiadiazolidin-3-one 1,1-dioxide]: the IC50 on PTPN1 (i.e., PTP1B) was at most 1 µM; at PTPN2 (i.e., TC-PTP), at most 1 µM.
